Experimental data from PMC10905675, “INX-315, a Selective CDK2 Inhibitor, Induces Cell Cycle Arrest and Senescence in Solid Tumors” (Cancer Discovery, 2023).

Assays:
Assay in all cases: SelectScreen LanthaScreen Binding
Details in all cases: INX-0315 at 100nM
[1] = biological target: T1, CAMK2G (CaMKII gamma) (Homo sapiens, UniProt Q13555)
T1 construct: purchased Thermo Fisher Scientific SelectScreen (plus Nanosyn / Reaction Biology for CDK/cyclin lines)
Source text: (§1) INX-315 was first evaluated in the SelectScreen Biochemical Kinase Profiling at Thermo Fisher Scientific (Madison, WI). The primary screen consisted of INX-315 dosed at a single concentration of 100 nmol/L in 1% DMSO across each platform within the SelectScreen array of assays, LanthaScreen Eu Kinase Binding Assay; AdaptaScreen; and Z'LyteScreen using preestablished conditions at Thermo Fisher Scientific as shown in Supplementary Table S2. […] The follow-up screen consisted of 10-point dose–response curves for INX-315 from 1 µmol/L to 0.0495 nmol/L.

[2] = biological target: T2, MAP2K1 (MEK1) S218D S222D (Homo sapiens, UniProt Q02750, S218D/S222D)
T2 construct: purchased Thermo Fisher Scientific SelectScreen (plus Nanosyn / Reaction Biology for CDK/cyclin lines)
Source text: as §1

[3] = biological target: T3, MAP3K5 (ASK1) (Homo sapiens, UniProt Q99683)
T3 construct: purchased Thermo Fisher Scientific SelectScreen (plus Nanosyn / Reaction Biology for CDK/cyclin lines)
Source text: as §1

[4] = biological target: T4, KIT V654A (Homo sapiens, UniProt P10721, V654A)
T4 construct: purchased Thermo Fisher Scientific SelectScreen (plus Nanosyn / Reaction Biology for CDK/cyclin lines)
Source text: as §1

[5] = biological target: T5, ULK3 (Homo sapiens, UniProt Q6PHR2)
T5 construct: purchased Thermo Fisher Scientific SelectScreen (plus Nanosyn / Reaction Biology for CDK/cyclin lines)
Source text: as §1

[6] = biological target: T6, CDK9/cyclin K (Homo sapiens, UniProt P50750)
T6 construct: purchased Thermo Fisher Scientific SelectScreen (plus Nanosyn / Reaction Biology for CDK/cyclin lines)
Source text: as §1

[7] = biological target: T7, FGFR1 V561M (Homo sapiens, UniProt P11362, V561M)
T7 construct: purchased Thermo Fisher Scientific SelectScreen (plus Nanosyn / Reaction Biology for CDK/cyclin lines)
Source text: as §1

[8] = biological target: T8, CAMKK1 (CAMKKA) (Homo sapiens, UniProt Q8N5S9)
T8 construct: purchased Thermo Fisher Scientific SelectScreen (plus Nanosyn / Reaction Biology for CDK/cyclin lines)
Source text: as §1

[9] = biological target: T9, TNIK (Homo sapiens, UniProt Q9UKE5)
T9 construct: purchased Thermo Fisher Scientific SelectScreen (plus Nanosyn / Reaction Biology for CDK/cyclin lines)
Source text: as §1

[10] = biological target: T10, WEE1 (Homo sapiens, UniProt P30291)
T10 construct: purchased Thermo Fisher Scientific SelectScreen (plus Nanosyn / Reaction Biology for CDK/cyclin lines)
Source text: as §1

[11] = biological target: T11, MAP2K6 (MKK6) (Homo sapiens, UniProt P52564)
T11 construct: purchased Thermo Fisher Scientific SelectScreen (plus Nanosyn / Reaction Biology for CDK/cyclin lines)
Source text: as §1

[12] = biological target: T12, ABL1 Q252H (Homo sapiens, UniProt P00519, Q252H)
T12 construct: purchased Thermo Fisher Scientific SelectScreen (plus Nanosyn / Reaction Biology for CDK/cyclin lines)
Source text: as §1

[13] = biological target: T13, SIK1 (Homo sapiens, UniProt P57059)
T13 construct: purchased Thermo Fisher Scientific SelectScreen (plus Nanosyn / Reaction Biology for CDK/cyclin lines)
Source text: as §1

[14] = biological target: T14, MYLK4 (Homo sapiens, UniProt Q86YV6)
T14 construct: purchased Thermo Fisher Scientific SelectScreen (plus Nanosyn / Reaction Biology for CDK/cyclin lines)
Source text: as §1

[15] = biological target: T15, STK33 (Homo sapiens, UniProt Q9BYT3)
T15 construct: purchased Thermo Fisher Scientific SelectScreen (plus Nanosyn / Reaction Biology for CDK/cyclin lines)
Source text: as §1

[16] = biological target: T16, LIMK1 (Homo sapiens, UniProt P53667)
T16 construct: purchased Thermo Fisher Scientific SelectScreen (plus Nanosyn / Reaction Biology for CDK/cyclin lines)
Source text: as §1

[17] = biological target: T17, TGFBR1 (ALK5) (Homo sapiens, UniProt P36897)
T17 construct: purchased Thermo Fisher Scientific SelectScreen (plus Nanosyn / Reaction Biology for CDK/cyclin lines)
Source text: as §1

[18] = biological target: T18, ALK C1156Y (Homo sapiens, UniProt Q9UM73, C1156Y)
T18 construct: purchased Thermo Fisher Scientific SelectScreen (plus Nanosyn / Reaction Biology for CDK/cyclin lines)
Source text: as §1

[19] = biological target: T19, CASK (Homo sapiens, UniProt O14936)
T19 construct: purchased Thermo Fisher Scientific SelectScreen (plus Nanosyn / Reaction Biology for CDK/cyclin lines)
Source text: as §1

[20] = biological target: T20, EPHA7 (Homo sapiens, UniProt Q15375)
T20 construct: purchased Thermo Fisher Scientific SelectScreen (plus Nanosyn / Reaction Biology for CDK/cyclin lines)
Source text: as §1

[21] = biological target: T21, ALK F1174L (Homo sapiens, UniProt Q9UM73, F1174L)
T21 construct: purchased Thermo Fisher Scientific SelectScreen (plus Nanosyn / Reaction Biology for CDK/cyclin lines)
Source text: as §1

[22] = biological target: T22, LIMK2 (Homo sapiens, UniProt P53671)
T22 construct: purchased Thermo Fisher Scientific SelectScreen (plus Nanosyn / Reaction Biology for CDK/cyclin lines)
Source text: as §1

[23] = biological target: T23, KIT D820E (Homo sapiens, UniProt P10721, D820E)
T23 construct: purchased Thermo Fisher Scientific SelectScreen (plus Nanosyn / Reaction Biology for CDK/cyclin lines)
Source text: as §1

[24] = biological target: T24, CAMKK2 (CaMKK beta) (Homo sapiens, UniProt Q96RR4)
T24 construct: purchased Thermo Fisher Scientific SelectScreen (plus Nanosyn / Reaction Biology for CDK/cyclin lines)
Source text: as §1

[25] = biological target: T25, MYO3B (MYO3 beta) (Homo sapiens, UniProt Q8WXR4)
T25 construct: purchased Thermo Fisher Scientific SelectScreen (plus Nanosyn / Reaction Biology for CDK/cyclin lines)
Source text: as §1

[26] = biological target: T26, DDR1 (Homo sapiens, UniProt Q08345)
T26 construct: purchased Thermo Fisher Scientific SelectScreen (plus Nanosyn / Reaction Biology for CDK/cyclin lines)
Source text: as §1

[27] = biological target: T27, CDK2/cyclin E1 (Homo sapiens, UniProt P24941)
T27 construct: purchased Millipore 14-475
Source text: as §1

[28] = biological target: T28, MLK4 (Homo sapiens, UniProt Q5TCX8)
T28 construct: purchased Thermo Fisher Scientific SelectScreen (plus Nanosyn / Reaction Biology for CDK/cyclin lines)
Source text: as §1

[29] = biological target: T29, RAF1 (cRAF) Y340D Y341D (Homo sapiens, UniProt P04049, Y340D/Y341D)
T29 construct: purchased Thermo Fisher Scientific SelectScreen (plus Nanosyn / Reaction Biology for CDK/cyclin lines)
Source text: as §1

[30] = biological target: T30, MERTK (cMER) A708S (Homo sapiens, UniProt Q12866, A708S)
T30 construct: purchased Thermo Fisher Scientific SelectScreen (plus Nanosyn / Reaction Biology for CDK/cyclin lines)
Source text: as §1

[31] = biological target: T31, MAP4K1 (HPK1) (Homo sapiens, UniProt Q92918)
T31 construct: purchased Thermo Fisher Scientific SelectScreen (plus Nanosyn / Reaction Biology for CDK/cyclin lines)
Source text: as §1

[32] = biological target: T32, CDK8/cyclin C (Homo sapiens, UniProt P49336)
T32 construct: purchased Thermo Fisher Scientific SelectScreen (plus Nanosyn / Reaction Biology for CDK/cyclin lines)
Source text: as §1

[33] = biological target: T33, MAP4K3 (GLK) (Homo sapiens, UniProt Q8IVH8)
T33 construct: purchased Thermo Fisher Scientific SelectScreen (plus Nanosyn / Reaction Biology for CDK/cyclin lines)
Source text: as §1

[34] = biological target: T34, RET V804M (Homo sapiens, UniProt P07949, V804M)
T34 construct: purchased Thermo Fisher Scientific SelectScreen (plus Nanosyn / Reaction Biology for CDK/cyclin lines)
Source text: as §1

[35] = biological target: T35, FYN A (Homo sapiens, UniProt P06241)
T35 construct: purchased Thermo Fisher Scientific SelectScreen (plus Nanosyn / Reaction Biology for CDK/cyclin lines)
Source text: as §1

[36] = biological target: T36, MAP3K2 (MEKK2) (Homo sapiens, UniProt Q9Y2U5)
T36 construct: purchased Thermo Fisher Scientific SelectScreen (plus Nanosyn / Reaction Biology for CDK/cyclin lines)
Source text: as §1

[37] = biological target: T37, AMPK (A1/B1/G3) (Homo sapiens, UniProt Q13131)
T37 construct: purchased Thermo Fisher Scientific SelectScreen (plus Nanosyn / Reaction Biology for CDK/cyclin lines)
Source text: as §1

T13 sequence (P57059 whole entry): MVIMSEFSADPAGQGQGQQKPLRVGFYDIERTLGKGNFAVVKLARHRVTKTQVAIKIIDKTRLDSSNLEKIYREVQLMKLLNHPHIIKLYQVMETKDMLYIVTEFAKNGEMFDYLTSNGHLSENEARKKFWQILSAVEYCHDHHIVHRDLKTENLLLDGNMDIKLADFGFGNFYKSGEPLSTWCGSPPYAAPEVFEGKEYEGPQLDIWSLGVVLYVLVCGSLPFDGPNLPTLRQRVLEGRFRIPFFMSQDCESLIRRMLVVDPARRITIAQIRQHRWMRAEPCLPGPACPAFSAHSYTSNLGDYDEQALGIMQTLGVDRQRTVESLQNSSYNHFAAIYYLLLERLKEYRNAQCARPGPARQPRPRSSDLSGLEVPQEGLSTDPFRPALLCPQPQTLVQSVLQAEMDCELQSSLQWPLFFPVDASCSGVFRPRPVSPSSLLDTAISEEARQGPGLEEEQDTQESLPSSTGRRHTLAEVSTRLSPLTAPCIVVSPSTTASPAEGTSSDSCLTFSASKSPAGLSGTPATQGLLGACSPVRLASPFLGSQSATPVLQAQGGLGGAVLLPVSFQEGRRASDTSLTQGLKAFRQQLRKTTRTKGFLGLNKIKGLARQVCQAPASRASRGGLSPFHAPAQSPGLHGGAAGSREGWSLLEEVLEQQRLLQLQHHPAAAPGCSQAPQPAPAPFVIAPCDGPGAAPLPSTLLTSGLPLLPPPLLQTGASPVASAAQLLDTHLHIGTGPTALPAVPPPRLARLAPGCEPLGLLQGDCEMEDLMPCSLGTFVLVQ
T23 sequence (P10721 26-976 D820E): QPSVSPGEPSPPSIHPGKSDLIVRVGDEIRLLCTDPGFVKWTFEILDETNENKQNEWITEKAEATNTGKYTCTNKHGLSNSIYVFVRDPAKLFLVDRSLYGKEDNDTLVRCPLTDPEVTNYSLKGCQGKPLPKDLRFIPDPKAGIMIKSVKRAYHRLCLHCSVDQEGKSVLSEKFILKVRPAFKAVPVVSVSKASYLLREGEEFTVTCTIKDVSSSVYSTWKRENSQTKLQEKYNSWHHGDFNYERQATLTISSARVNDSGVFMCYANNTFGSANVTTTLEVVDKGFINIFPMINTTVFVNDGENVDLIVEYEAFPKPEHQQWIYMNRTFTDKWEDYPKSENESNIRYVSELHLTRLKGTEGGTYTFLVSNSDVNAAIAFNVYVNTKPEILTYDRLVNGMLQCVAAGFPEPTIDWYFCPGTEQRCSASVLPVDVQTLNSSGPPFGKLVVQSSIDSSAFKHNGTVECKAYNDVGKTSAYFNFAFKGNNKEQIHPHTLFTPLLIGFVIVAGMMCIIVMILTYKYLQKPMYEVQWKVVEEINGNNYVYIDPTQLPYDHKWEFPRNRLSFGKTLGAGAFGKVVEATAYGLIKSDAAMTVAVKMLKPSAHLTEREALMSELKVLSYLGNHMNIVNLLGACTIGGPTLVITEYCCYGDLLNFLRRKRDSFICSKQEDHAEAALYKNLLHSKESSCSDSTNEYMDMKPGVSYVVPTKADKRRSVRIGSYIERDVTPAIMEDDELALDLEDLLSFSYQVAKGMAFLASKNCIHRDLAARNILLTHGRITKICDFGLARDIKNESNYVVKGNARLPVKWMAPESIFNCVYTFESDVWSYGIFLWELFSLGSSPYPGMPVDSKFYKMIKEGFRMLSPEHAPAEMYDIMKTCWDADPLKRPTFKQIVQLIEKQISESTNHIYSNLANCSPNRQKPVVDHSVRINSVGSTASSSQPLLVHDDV
T28 sequence (Q5TCX8 whole entry): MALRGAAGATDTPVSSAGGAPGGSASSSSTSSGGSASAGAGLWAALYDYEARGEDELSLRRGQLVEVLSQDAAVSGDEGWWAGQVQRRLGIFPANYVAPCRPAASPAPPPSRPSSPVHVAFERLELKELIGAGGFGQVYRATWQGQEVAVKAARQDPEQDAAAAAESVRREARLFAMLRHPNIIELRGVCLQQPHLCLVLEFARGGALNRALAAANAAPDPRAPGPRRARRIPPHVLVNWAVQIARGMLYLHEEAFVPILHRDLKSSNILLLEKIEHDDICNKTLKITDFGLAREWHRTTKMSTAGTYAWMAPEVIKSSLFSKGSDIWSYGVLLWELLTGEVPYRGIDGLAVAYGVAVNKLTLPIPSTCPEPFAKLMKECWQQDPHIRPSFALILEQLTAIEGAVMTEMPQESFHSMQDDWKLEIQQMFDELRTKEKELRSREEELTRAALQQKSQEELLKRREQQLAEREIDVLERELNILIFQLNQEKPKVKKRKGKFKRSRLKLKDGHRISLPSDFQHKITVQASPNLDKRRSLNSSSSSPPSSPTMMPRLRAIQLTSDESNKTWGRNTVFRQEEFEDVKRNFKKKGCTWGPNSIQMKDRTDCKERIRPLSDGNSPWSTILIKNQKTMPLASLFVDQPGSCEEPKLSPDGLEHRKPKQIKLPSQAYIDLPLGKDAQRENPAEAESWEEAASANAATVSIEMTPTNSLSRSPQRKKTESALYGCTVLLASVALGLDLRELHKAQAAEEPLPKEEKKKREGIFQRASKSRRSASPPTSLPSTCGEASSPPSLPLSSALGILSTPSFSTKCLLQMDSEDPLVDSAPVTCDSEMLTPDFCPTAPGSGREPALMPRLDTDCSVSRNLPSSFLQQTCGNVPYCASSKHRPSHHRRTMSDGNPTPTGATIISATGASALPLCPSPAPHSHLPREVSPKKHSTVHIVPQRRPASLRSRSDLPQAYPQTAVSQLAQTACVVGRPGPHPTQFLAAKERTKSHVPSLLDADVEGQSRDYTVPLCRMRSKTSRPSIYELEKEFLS
T22 sequence (P53671 whole entry): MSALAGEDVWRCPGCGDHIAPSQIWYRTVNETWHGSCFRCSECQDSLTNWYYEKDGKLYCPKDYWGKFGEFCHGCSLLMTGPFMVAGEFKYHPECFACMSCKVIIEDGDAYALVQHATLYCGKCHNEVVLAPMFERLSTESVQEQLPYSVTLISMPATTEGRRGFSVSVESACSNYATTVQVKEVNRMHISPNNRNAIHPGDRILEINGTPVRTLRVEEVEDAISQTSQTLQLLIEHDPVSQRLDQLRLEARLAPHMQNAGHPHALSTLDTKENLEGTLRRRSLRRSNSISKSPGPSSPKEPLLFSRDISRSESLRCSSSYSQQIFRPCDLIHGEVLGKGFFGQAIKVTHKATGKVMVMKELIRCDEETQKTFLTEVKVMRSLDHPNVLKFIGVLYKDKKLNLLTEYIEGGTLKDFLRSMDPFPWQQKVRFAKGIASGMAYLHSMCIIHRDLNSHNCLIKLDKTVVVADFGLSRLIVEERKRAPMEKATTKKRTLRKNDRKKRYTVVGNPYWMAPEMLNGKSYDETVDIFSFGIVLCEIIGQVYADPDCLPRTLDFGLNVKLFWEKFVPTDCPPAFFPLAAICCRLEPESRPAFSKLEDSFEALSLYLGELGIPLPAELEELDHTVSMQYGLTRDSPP
T16 sequence (P53667 whole entry): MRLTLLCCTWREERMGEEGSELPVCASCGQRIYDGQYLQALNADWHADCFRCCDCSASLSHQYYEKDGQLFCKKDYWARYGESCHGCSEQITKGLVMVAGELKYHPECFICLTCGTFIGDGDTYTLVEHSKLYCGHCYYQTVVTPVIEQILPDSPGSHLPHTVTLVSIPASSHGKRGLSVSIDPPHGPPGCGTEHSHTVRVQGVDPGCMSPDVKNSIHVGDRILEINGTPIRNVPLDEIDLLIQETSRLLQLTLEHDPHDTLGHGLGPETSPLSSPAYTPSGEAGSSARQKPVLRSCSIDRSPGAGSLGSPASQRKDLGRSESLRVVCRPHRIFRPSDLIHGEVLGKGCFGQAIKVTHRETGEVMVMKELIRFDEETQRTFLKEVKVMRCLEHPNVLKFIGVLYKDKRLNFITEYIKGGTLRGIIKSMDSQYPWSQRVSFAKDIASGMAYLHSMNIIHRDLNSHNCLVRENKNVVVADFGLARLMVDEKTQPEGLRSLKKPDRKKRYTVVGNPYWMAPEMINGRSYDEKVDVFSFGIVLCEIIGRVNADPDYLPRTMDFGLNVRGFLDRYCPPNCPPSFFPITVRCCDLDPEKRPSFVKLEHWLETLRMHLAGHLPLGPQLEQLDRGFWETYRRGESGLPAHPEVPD
T36 sequence (Q9Y2U5 whole entry): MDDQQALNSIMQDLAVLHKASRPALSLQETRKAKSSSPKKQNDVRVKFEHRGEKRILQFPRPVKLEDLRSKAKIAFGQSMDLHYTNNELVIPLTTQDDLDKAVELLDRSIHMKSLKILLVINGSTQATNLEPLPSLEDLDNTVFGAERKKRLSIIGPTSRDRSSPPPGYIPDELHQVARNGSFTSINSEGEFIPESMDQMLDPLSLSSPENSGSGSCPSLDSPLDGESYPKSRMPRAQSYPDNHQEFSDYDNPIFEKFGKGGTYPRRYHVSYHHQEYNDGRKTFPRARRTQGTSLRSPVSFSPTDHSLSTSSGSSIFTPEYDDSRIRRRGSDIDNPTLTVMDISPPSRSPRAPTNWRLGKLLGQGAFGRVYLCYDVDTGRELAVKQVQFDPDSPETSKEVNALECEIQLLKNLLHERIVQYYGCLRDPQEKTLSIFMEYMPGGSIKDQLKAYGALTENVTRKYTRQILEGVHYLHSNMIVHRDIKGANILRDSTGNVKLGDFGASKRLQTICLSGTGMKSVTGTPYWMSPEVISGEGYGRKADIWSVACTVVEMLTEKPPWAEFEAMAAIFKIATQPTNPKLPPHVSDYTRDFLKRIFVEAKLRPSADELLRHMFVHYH
T11 sequence (P52564 whole entry): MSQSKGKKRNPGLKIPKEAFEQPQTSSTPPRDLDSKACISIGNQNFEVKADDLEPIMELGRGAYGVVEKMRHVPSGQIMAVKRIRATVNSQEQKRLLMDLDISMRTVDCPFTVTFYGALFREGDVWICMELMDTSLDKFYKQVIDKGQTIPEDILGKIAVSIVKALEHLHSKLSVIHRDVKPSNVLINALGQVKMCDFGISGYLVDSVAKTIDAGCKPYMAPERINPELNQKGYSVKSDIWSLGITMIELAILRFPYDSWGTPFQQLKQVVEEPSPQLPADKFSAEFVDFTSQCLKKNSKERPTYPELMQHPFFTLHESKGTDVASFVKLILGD
T4 sequence (P10721 26-976 V654A): as the sequence (P10721 26-976 D820E) above, with V629A, E795D counted along it

NS(=O)(=O)c1ccc(Nc2ncc3cc4n(c3n2)C2(CCCCC2)C(=O)NN4)cc1 [INX-315]
inhibition at 0.1 µM [1]: -1% | inhibition at 0.1 µM [2]: 1% | inhibition at 0.1 µM [3]: 10% | inhibition at 0.1 µM [4]: 26% | inhibition at 0.1 µM [5]: 25% | inhibition at 0.1 µM [6]: 38% | inhibition at 0.1 µM [7]: 12% | inhibition at 0.1 µM [8]: 6% | inhibition at 0.1 µM [9]: 12% | inhibition at 0.1 µM [10]: 4% | inhibition at 0.1 µM [11]: -3% | inhibition at 0.1 µM [12]: 19% | inhibition at 0.1 µM [13]: 4% | inhibition at 0.1 µM [14]: 20% | inhibition at 0.1 µM [15]: 5% | inhibition at 0.1 µM [16]: 34% | inhibition at 0.1 µM [17]: 4% | inhibition at 0.1 µM [18]: 9% | inhibition at 0.1 µM [19]: -3% | inhibition at 0.1 µM [20]: 9% | inhibition at 0.1 µM [21]: 12% | inhibition at 0.1 µM [22]: 22% | inhibition at 0.1 µM [23]: 12% | inhibition at 0.1 µM [24]: 3% | inhibition at 0.1 µM [25]: 0% | inhibition at 0.1 µM [26]: 3% | inhibition at 0.1 µM [27]: 98% | inhibition at 0.1 µM [28]: -5% | inhibition at 0.1 µM [29]: -2% | inhibition at 0.1 µM [30]: 14% | inhibition at 0.1 µM [31]: 17% | inhibition at 0.1 µM [32]: 0% | inhibition at 0.1 µM [33]: 8% | inhibition at 0.1 µM [34]: 21% | inhibition at 0.1 µM [35]: 7% | inhibition at 0.1 µM [36]: 12% | inhibition at 0.1 µM [37]: 19%
